Reference: ChEMBL document CHEMBL5214940, “New potent ciprofloxacin-uracil conjugates as DNA gyrase and topoisomerase IV inhibitors against methicillin-resistant Staphylococcus aureus” (Bioorg Med Chem, 2022)
pIC50: −log10 of the molar value. Values after ≈ are worked out from the molar mass of the structure shown.

Key:
Staphylococcus aureus [1] = assay: Antibacterial activity against Staphylococcus aureus ATCC6538 assessed as zone of inhibition by cup-plate agar diffusion method; type: functional
Escherichia coli = assay: Antibacterial activity against […] assessed as zone of inhibition by cup-plate agar diffusion method; type: functional
Pseudomonas aeruginosa = assay: Antibacterial activity against Pseudomonas aeruginosa ATCC27853 assessed as zone of inhibition by cup-plate agar diffusion method; type: functional
Klebsiella pneumoniae = assay: Antibacterial activity against Klebsiella pneumoniae ATCC10031 assessed as zone of inhibition by cup-plate agar diffusion method; type: functional
Staphylococcus aureus [2] = assay: Antibacterial activity against methicillin-resistant Staphylococcus aureus AUMC 261 assessed as zone of inhibition by cup-plate agar diffusion method; type: functional
DNA gyrase = DNA gyrase (Escherichia coli, UniProt P0AES4+P0AES6); assay: Inhibition of Escherichia coli DNA gyrase supercoiling activity using […] as substrate incubated for 15 to 30 mins by agarose gel electrophoresis analysis; type: protein-complex assay
[3] = Inhibition of Escherichia coli topoisomerase 4 mediated relaxation of supercoiled pHOT1 DNA at expense of ATP hydrolysis by ethidium bromide staining based agarose gel electrophoresis

| SMILES | MIC (Staphylococcus aureus [1]) [µM] | MIC (Escherichia coli) [µM] | MIC (Pseudomonas aeruginosa) [µM] | MIC (Klebsiella pneumoniae) [µM] | MIC (Staphylococcus aureus [2]) [µM] | pIC50 (DNA gyrase) | pIC50 [3] |
| --- | --- | --- | --- | --- | --- | --- | --- |
| CCCn1c(=O)cc(NC(=O)CN2CCN(c3cc4c(cc3F)c(=O)c(C(=O)O)cn4C3CC3)CC2)[nH]c1=O | 18.5 (≈ 10 µg/mL) | 11.6 (≈ 6.25 µg/mL) | > 100 | 11.6 (≈ 6.25 µg/mL) |  |  |  |
| Cc1ccc(NC(=O)CSc2nc(NC(=O)CN3CCN(c4cc5c(cc4F)c(=O)c(C(=O)O)cn5C4CC4)CC3)cc(=O)[nH]2)cc1 | > 100 | 18.9 (≈ 12.5 µg/mL) | > 100 | 37.8 (≈ 25 µg/mL) |  |  |  |
| N=C1N=C(SCC(=O)N2CCN(c3cc4c(cc3F)c(=O)c(C(=O)O)cn4C3CC3)CC2)NC(=O)/C1=C/c1ccc(Br)cc1 | > 100 | 4.59 (≈ 3.13 µg/mL) | > 100 | 9.19 (≈ 6.26 µg/mL) |  |  |  |
| COc1cc(/C=C2\C(=N)N=C(SCC(=O)N3CCN(c4cc5c(cc4F)c(=O)c(C(=O)O)cn5C4CC4)CC3)NC2=O)ccc1O | 7.58 (≈ 4.92 µg/mL) | 2.41 (≈ 1.56 µg/mL) | > 100 | 4.81 (≈ 3.12 µg/mL) | 1.57 (≈ 1.02 µg/mL) |  |  |
| COc1ccc(NC(=O)CSc2nc(NC(=O)CN3CCN(c4cc5c(cc4F)c(=O)c(C(=O)O)cn5C4CC4)CC3)cc(=O)[nH]2)cc1 | > 100 | 4.61 (≈ 3.12 µg/mL) | > 100 | 18.5 (≈ 12.5 µg/mL) |  |  |  |
| CCCCSc1nc(NC(=O)CN2CCN(c3cc4c(cc3F)c(=O)c(C(=O)O)cn4C3CC3)CC2)cc(=O)[nH]1 | 17.5 (≈ 10 µg/mL) | 2.73 (≈ 1.56 µg/mL) | > 100 | 5.47 (≈ 3.12 µg/mL) |  |  |  |
| O=C(CSc1nc(NC(=O)CN2CCN(c3cc4c(cc3F)c(=O)c(C(=O)O)cn4C3CC3)CC2)cc(=O)[nH]1)Nc1ccccc1 | > 100 | 9.66 (≈ 6.26 µg/mL) | > 100 | 19.3 (≈ 12.5 µg/mL) |  |  |  |
| Cn1c(NC(=O)CN2CCN(c3cc4c(cc3F)c(=O)c(C(=O)O)cn4C3CC3)CC2)cc(=O)n(C)c1=O | > 100 | 1.48 (≈ 0.779 µg/mL) | 2.97 (≈ 1.56 µg/mL) | 2.97 (≈ 1.56 µg/mL) |  |  |  |
| COc1cc(/C=C2\C(=N)N=C(SCC(=O)N3CCN(c4cc5c(cc4F)c(=O)c(C(=O)O)cn5C4CC4)CC3)NC2=O)cc(OC)c1OC | 4.25 (≈ 2.94 µg/mL) | 4.51 (≈ 3.12 µg/mL) | > 100 | 9.03 (≈ 6.26 µg/mL) | 0.096 (≈ 0.0665 µg/mL) |  |  |
| N=C1N=C(SCC(=O)N2CCN(c3cc4c(cc3F)c(=O)c(C(=O)O)cn4C3CC3)CC2)NC(=O)/C1=C/c1ccc(Cl)cc1 | > 100 | 4.91 (≈ 3.13 µg/mL) | > 100 | 4.91 (≈ 3.13 µg/mL) |  |  |  |
| N=C1N=C(SCC(=O)N2CCN(c3cc4c(cc3F)c(=O)c(C(=O)O)cn4C3CC3)CC2)NC(=O)/C1=C/c1ccc(F)cc1 | > 100 | 5.03 (≈ 3.12 µg/mL) | > 100 | 20.2 (≈ 12.5 µg/mL) |  |  |  |
| Cn1c(=O)cc(NC(=O)CN2CCN(c3cc4c(cc3F)c(=O)c(C(=O)O)cn4C3CC3)CC2)[nH]c1=O | > 100 | 3.05 (≈ 1.56 µg/mL) | > 100 | 6.1 (≈ 3.13 µg/mL) |  |  |  |
| COc1ccc(/C=C2\C(=N)N=C(SCC(=O)N3CCN(c4cc5c(cc4F)c(=O)c(C(=O)O)cn5C4CC4)CC3)NC2=O)cc1OC | > 100 | 4.71 (≈ 3.12 µg/mL) | 2.97 (≈ 1.97 µg/mL) | 4.71 (≈ 3.12 µg/mL) |  |  |  |
| CSc1nc(NC(=O)CN2CCN(c3cc4c(cc3F)c(=O)c(C(=O)O)cn4C3CC3)CC2)cc(=O)[nH]1 | 2.37 (≈ 1.25 µg/mL) | 2.95 (≈ 1.56 µg/mL) | > 100 | 5.91 (≈ 3.12 µg/mL) | 0.046 (≈ 0.0243 µg/mL) | 5.24 | 5.11 |
| C=CCSc1nc(NC(=O)CN2CCN(c3cc4c(cc3F)c(=O)c(C(=O)O)cn4C3CC3)CC2)cc(=O)[nH]1 | 18.1 (≈ 10 µg/mL) | 11.3 (≈ 6.26 µg/mL) | > 100 | 22.6 (≈ 12.5 µg/mL) |  |  |  |
| O=C(CSc1nc(NC(=O)CN2CCN(c3cc4c(cc3F)c(=O)c(C(=O)O)cn4C3CC3)CC2)cc(=O)[nH]1)Nc1ccc(Cl)cc1 | 14.7 (≈ 10 µg/mL) | 18.4 (≈ 12.5 µg/mL) | > 100 | 4.58 (≈ 3.12 µg/mL) | 7.22 (≈ 4.93 µg/mL) |  |  |
| CCCSc1nc(NC(=O)CN2CCN(c3cc4c(cc3F)c(=O)c(C(=O)O)cn4C3CC3)CC2)cc(=O)[nH]1 | 18 (≈ 10 µg/mL) | 5.61 (≈ 3.12 µg/mL) | > 100 | 11.2 (≈ 6.26 µg/mL) |  |  |  |
| N=C1N=C(SCC(=O)N2CCN(c3cc4c(cc3F)c(=O)c(C(=O)O)cn4C3CC3)CC2)NC(=O)/C1=C/c1ccccc1 | > 100 | 1.3 (≈ 0.783 µg/mL) | 2.59 (≈ 1.56 µg/mL) | 5.18 (≈ 3.12 µg/mL) |  |  |  |
| COc1ccc(/C=C2\C(=N)N=C(SCC(=O)N3CCN(c4cc5c(cc4F)c(=O)c(C(=O)O)cn5C4CC4)CC3)NC2=O)cc1 | 15.8 (≈ 10 µg/mL) | 4.94 (≈ 3.13 µg/mL) | > 100 | 2.47 (≈ 1.56 µg/mL) | 2.43 (≈ 1.54 µg/mL) |  |  |
| O=C(CN1CCN(c2cc3c(cc2F)c(=O)c(C(=O)O)cn3C2CC2)CC1)Nc1cc(=O)[nH]c(=O)[nH]1 | 1.25 (≈ 0.623 µg/mL) | 0.78 (≈ 0.389 µg/mL) | > 100 | 1.57 (≈ 0.783 µg/mL) | 0.031 (≈ 0.0155 µg/mL) | 5.76 | 5.36 |
| O=C(O)c1cn(C2CC2)c2cc(N3CCNCC3)c(F)cc2c1=O [CIPROFLOXACIN] | 7.58 (≈ 2.51 µg/mL) | 0.6 (≈ 0.199 µg/mL) | 0.6 (≈ 0.199 µg/mL) | 1.21 (≈ 0.401 µg/mL) | 0.57 (≈ 0.189 µg/mL) |  | 5.09 |
